Values quoted from earlier work, collected in US20260091069A1, “TRANS[…] TRA[…] REGULATED ONCOLYTIC HERPES SIMPLEX VIRUS VECTORS” (VIROGIN BIOTECH CANADA LTD, priority 2021, published 2026).

Conditions: clinical dose of Ganciclovir

Nc1nc(O)c2ncn(COC(CO)CO)c2n1 [Ganciclovir]
Cmax in humans: 9000 ng/mL
